Experimental findings from ChEMBL document CHEMBL1147631, “Aminomethylpyrimidines as novel DPP-IV inhibitors: a 10(5)-fold activity increase by optimization of aromatic substituents” (Bioorg Med Chem Lett, 2004) are described below.

For this experiment, the target named is Dipeptidyl peptidase 4 (Homo sapiens, UniProt P27487). In words: Inhibitory activity against Dipeptidylpeptidase IV mediated cleavage of Ala-Pro-7-amido-4-tri-fluoromethylcoumarin in a fluorogenic assay. Format: functional.
Chain of Dipeptidyl peptidase 4 (P27487 whole entry): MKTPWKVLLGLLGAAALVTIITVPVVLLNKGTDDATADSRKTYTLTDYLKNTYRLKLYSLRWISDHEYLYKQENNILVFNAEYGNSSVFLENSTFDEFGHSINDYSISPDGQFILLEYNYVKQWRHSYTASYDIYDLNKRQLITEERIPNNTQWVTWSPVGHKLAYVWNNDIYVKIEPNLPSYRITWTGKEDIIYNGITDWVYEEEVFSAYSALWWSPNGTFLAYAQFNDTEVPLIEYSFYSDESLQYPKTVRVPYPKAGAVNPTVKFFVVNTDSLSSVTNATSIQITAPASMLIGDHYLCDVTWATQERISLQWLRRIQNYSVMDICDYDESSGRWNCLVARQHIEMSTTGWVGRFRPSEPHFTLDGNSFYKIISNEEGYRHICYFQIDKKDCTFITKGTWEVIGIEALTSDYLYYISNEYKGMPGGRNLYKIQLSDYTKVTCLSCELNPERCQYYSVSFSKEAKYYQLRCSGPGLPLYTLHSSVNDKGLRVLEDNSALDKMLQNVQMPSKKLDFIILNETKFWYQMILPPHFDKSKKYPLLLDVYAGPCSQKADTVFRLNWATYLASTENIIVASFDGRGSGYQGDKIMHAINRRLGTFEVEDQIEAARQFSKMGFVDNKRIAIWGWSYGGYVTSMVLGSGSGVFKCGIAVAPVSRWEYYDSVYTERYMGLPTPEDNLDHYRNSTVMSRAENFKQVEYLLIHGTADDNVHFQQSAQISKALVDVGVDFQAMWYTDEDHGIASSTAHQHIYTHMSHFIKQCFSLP

`NCc1c(N)nc(-c2ccccc2)nc1-c1ccc(F)cc1` gave an IC50 of 18 µM.
As for `Cc1cccc(-c2nc(-c3ccccc3)nc(N)c2CN)c1`, the figure is 20 µM; as for `NCc1c(N)nc(-c2ccccc2)nc1-c1ccccc1F`, 14 µM.
As for `NCc1c(N)nc(-c2ccccc2)nc1-c1ccccc1C(F)(F)F`, the figure is 14 µM.
Take `NCc1c(N)nc(-c2ccccc2)nc1-c1cccc(C(F)(F)F)c1`: half-maximal inhibition (IC50) was put at 170 µM.
Compound `NCc1c(N)nc(-c2ccccc2)nc1-c1ccccc1` registered an IC50 of 42 µM.
The compound `COc1cccc(-c2nc(-c3ccccc3)nc(N)c2CN)c1` registered a half-inhibitory concentration (IC50) of 80 µM.
`NCc1c(N)nc(-c2ccccc2)nc1-c1ccc(Cl)cc1`: the IC50 came to 1.4 µM.
The compound `NCc1c(N)nc(-c2ccc(C(F)(F)F)cc2)nc1-c1ccc(Cl)cc1Cl` returned an IC50 of 0.18 µM.
Take `COc1ccccc1-c1nc(N)c(CN)c(-c2ccc(Cl)cc2Cl)n1`: the IC50 worked out at 0.35 µM.
Compound `NCc1c(N)nc(-c2ccc(F)cc2)nc1-c1ccc(Cl)cc1Cl` displayed an IC50 of 0.0002 µM.
As for `Cc1ccc(-c2nc(N)c(CN)c(-c3ccc(Cl)cc3Cl)n2)cc1`, the figure is 0.09 µM; as for `NCc1c(N)nc(-c2ccccc2)nc1-c1ccc(C(F)(F)F)cc1`, 1.1 µM.
Compound `Cc1ccccc1-c1nc(-c2ccccc2)nc(N)c1CN` gave an IC50 of 1.5 µM.
Turning to `Cc1cccc(-c2nc(N)c(CN)c(-c3ccc(Cl)cc3Cl)n2)c1`, half-maximal inhibition (IC50) was put at 0.0009 µM.
Consider `NCc1c(N)nc(-c2ccccc2)nc1-c1cccc(F)c1`, for which the half-maximal inhibitory concentration (IC50) was 40 µM.
For `NCc1c(N)nc(-c2ccccc2)nc1-c1ccc(Cl)cc1Cl`, the IC50 stood at 0.01 µM.
On to `COc1ccc(-c2nc(-c3ccccc3)nc(N)c2CN)cc1`, for which the IC50 was found to be 47 µM.
Take `NCc1c(N)nc(-c2ccccc2)nc1-c1ccccc1Cl`: the IC50 is 2.5 µM.
The compound `COc1ccccc1-c1nc(-c2ccccc2)nc(N)c1CN` registered an IC50 of 1.5 µM.
As for `COc1ccc(-c2nc(N)c(CN)c(-c3ccc(Cl)cc3Cl)n2)cc1`, the figure is 0.1 µM.
For `NCc1c(N)nc(-c2ccccc2F)nc1-c1ccc(Cl)cc1Cl`, half-maximal inhibition (IC50) required 0.047 µM.
Turning to `Cc1ccccc1-c1nc(N)c(CN)c(-c2ccc(Cl)cc2Cl)n1`, the IC50 worked out at 1.75 µM.
As for `NCc1c(N)nc(-c2cccc(C(F)(F)F)c2)nc1-c1ccc(Cl)cc1Cl`, the figure is 0.13 µM; as for `NCc1c(N)nc(-c2cccc(Cl)c2)nc1-c1ccc(Cl)cc1Cl`, 0.24 µM; as for `NCc1c(N)nc(-c2ccc(Cl)cc2)nc1-c1ccc(Cl)cc1Cl`, 0.053 µM.
The compound `COc1cccc(-c2nc(N)c(CN)c(-c3ccc(Cl)cc3Cl)n2)c1` returned an IC50 of 0.34 µM.
Consider `NCc1c(N)nc(-c2ccc(F)c(F)c2)nc1-c1ccc(Cl)cc1Cl`, for which the half-inhibitory concentration (IC50) was found to be 0.003 µM.
`Cc1ccc(-c2nc(-c3ccccc3)nc(N)c2CN)cc1` returned an IC50 of 1 µM.
The compound `NCc1c(N)nc(-c2ccccc2)nc1-c1cccc(Cl)c1` yielded a 50% inhibitory concentration (IC50) of 31 µM.

A word on the IC50: it is the concentration that inhibits the measured activity by half. Read a high IC50 as lower potency.
